Laboratory results: PubChem BioAssay AID248 (DTP/NCI, 2004)
Values joined by “and” are separate entries in the source; they are usually repeats but may differ in a detail not shown here. Equal entries are not always repeated. Toxic doses and inconclusive results are not listed. Rule as the data show it: active = T/C of 150% or more; inactive = T/C below 125%.

System: L1210 leukemia ip in BDF1 mice, survival T/C
Test: NCI In Vivo Anticancer Drug Screen. Data for tumor model L1210 Leukemia (intraperitoneal) in B6D2F1 (BDF1) mice
Settings: endpoint: mean survival time, higher = longer survival
Method in brief: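 Tumor was transplanted into mice, which were then dosed with test compound or vehicle alone. Survival was recorded for each group, and the treated figure was expressed relative to the control figure.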

[1] = dose: 100.0 mg/kg/injection, schedule: Q04DX002 (ip), vehicle: Klucel (hydroxypropylcellulose) (HPC)

Measured: T/C

CCS(=O)(=O)C1C2CCC(O2)C1S(=O)(=O)CC (configuration not stated)
inactive: [1] 94 % of control | dose: 200.0 mg/kg/injection, schedule: Q04DX002 (ip), vehicle: Klucel (hydroxypropylcellulose) (HPC) 101 % of control | dose: 400.0 mg/kg/injection, schedule: Q04DX002 (ip), vehicle: Klucel (hydroxypropylcellulose) (HPC) 90 % of control

Nc1nc2ncc(CNc3ccc(C(=O)NC(CCC(=O)O)C(=O)O)cc3F)nc2c(=O)[nH]1 (configuration not stated)
inactive: dose: 50.0 mg/kg/injection, schedule: Q01DX001 (ip), vehicle: saline 109 % of control | dose: 100.0 mg/kg/injection, schedule: Q01DX001 (ip), vehicle: saline 105 % of control

CCCCCCCN1CCC(C(=O)CC)(c2cccc(O)c2)CC1
inactive: dose: 12.5 mg/kg/injection, schedule: Q01DX009 (ip), vehicle: Klucel (hydroxypropylcellulose) (HPC) 106 % of control | dose: 25.0 mg/kg/injection, schedule: Q01DX009 (ip), vehicle: Klucel (hydroxypropylcellulose) (HPC) 98 % of control | dose: 50.0 mg/kg/injection, schedule: Q01DX009 (ip), vehicle: Klucel (hydroxypropylcellulose) (HPC) 93 % of control and 87 % of control | [1] 93 % of control

Cn1nc(-c2ccccc2)[n+](C)n1
inactive: dose: 75.0 mg/kg/injection, schedule: Q01DX001 (ip), vehicle: saline 104 % of control | dose: 150.0 mg/kg/injection, schedule: Q01DX001 (ip), vehicle: saline 100 % of control | dose: 300.0 mg/kg/injection, schedule: Q01DX001 (ip), vehicle: saline 100 % of control
